Laboratory results: ChEMBL document CHEMBL3797079, “Synergistic reduction of HIV-1 infectivity by 5-azacytidine and inhibitors of ribonucleotide reductase” (Bioorg Med Chem, 2016)
Activity calls are given as the source filed them. No cut-off for these calls is given here.

Assays:
U373-MAGI [1] = assay: Reduction in dTTP level in human U373-MAGI cells at 25 nM after 6 hrs by LC-MS/MS analysis; assay type: functional, cell-based
[2] = Cytotoxicity against human U373-MAGI cells at 2.5 nM measured at 72 hrs by Celltiter-Glo luminescent cell viability assay; assay type: cell-based; conditions: 0.0025 µM
U373-MAGI [3] = assay: Effect on 5-aza-dCTP level in human U373-MAGI cells at 2.5 nM preincubated for 2 hrs followed by 5-aza-dC addition measured after 4 hrs by LC-MS/MS analysis; assay type: functional, cell-based
U373-MAGI [4] = assay: Effect on dRGU-TP level in human U373-MAGI cells at 25 nM preincubated for 2 hrs followed by 5-aza-dC addition measured after 4 hrs by LC-MS/MS analysis; assay type: functional, cell-based
U373-MAGI [5] = assay: Increase in 5-aza-dCTP/dCTP ratio in human U373-MAGI cells at 25 nM preincubated for 2 hrs followed by 5-aza-C addition measured after 4 hrs by LC-MS/MS analysis relative to 5-aza-C; assay type: functional, cell-based
U373-MAGI [6] = assay: Effect on 5-aza-dCTP level in human U373-MAGI cells at 25 nM preincubated for 2 hrs followed by 5-aza-dC addition measured after 4 hrs by LC-MS/MS analysis; assay type: functional, cell-based
[7] = tested on: Human immunodeficiency virus 1; assay: Potentiation of 5-Aza-C-induced antiviral activity against VSV-G pseudotyped HIV-1 NL4-3 infected in human U373-MAGI cells assessed as decrease in 5-Aza-C EC50 at 2.5 nM preincubated for 2 hrs followed by 5-Aza-C addition for 2 hrs and subsequent viral infection measured at 72 hrs post infection by flow cytometric analysis relative to control; assay type: functional
U373-MAGI [8] = assay: Reduction in dGTP level in human U373-MAGI cells at 25 nM after 6 hrs by LC-MS/MS analysis; assay type: functional, cell-based
U373-MAGI [9] = assay: Reduction in dGTP level in human U373-MAGI cells at 2.5 nM after 6 hrs by LC-MS/MS analysis; assay type: functional, cell-based
U373-MAGI [10] = assay: Effect on dRGU-TP level in human U373-MAGI cells at 2.5 nM preincubated for 2 hrs followed by 5-aza-dC addition measured after 4 hrs by LC-MS/MS analysis; assay type: functional, cell-based
U373-MAGI [11] = assay: Reduction in dCTP level in human U373-MAGI cells at 25 nM preincubated for 2 hrs followed by 5-aza-C addition measured after 4 hrs by LC-MS/MS analysis relative to 5-aza-C; assay type: functional, cell-based
U373-MAGI [12] = assay: Increase in 5-aza-dCTP/dCTP ratio in human U373-MAGI cells at 2.5 nM preincubated for 2 hrs followed by 5-aza-dC addition measured after 4 hrs by LC-MS/MS analysis relative to 5-aza-dC; assay type: functional, cell-based
U373-MAGI [13] = assay: Reduction in 5-aza-dCTP level in human U373-MAGI cells at 25 nM preincubated for 2 hrs followed by 5-aza-C addition measured after 4 hrs by LC-MS/MS analysis; assay type: functional, cell-based
U373-MAGI [14] = assay: Reduction in dATP level in human U373-MAGI cells at 25 nM after 6 hrs by LC-MS/MS analysis; assay type: functional, cell-based
U373-MAGI [15] = assay: Reduction in dRGU-TP level in human U373-MAGI cells at 25 nM preincubated for 2 hrs followed by 5-aza-C addition measured after 4 hrs by LC-MS/MS analysis; assay type: functional, cell-based
U373-MAGI [16] = assay: Increase in 5-aza-dCTP/dCTP ratio in human U373-MAGI cells at 2.5 nM preincubated for 2 hrs followed by 5-aza-C addition measured after 4 hrs by LC-MS/MS analysis relative to 5-aza-C; assay type: functional, cell-based
U373-MAGI [17] = assay: Reduction in dCTP level in human U373-MAGI cells at 2.5 nM preincubated for 2 hrs followed by 5-aza-C addition measured after 4 hrs by LC-MS/MS analysis; assay type: functional, cell-based
U373-MAGI [18] = assay: Reduction in dCTP level in human U373-MAGI cells at 2.5 nM after 6 hrs by LC-MS/MS analysis; assay type: functional, cell-based
U373-MAGI [19] = assay: Reduction in dCTP level in human U373-MAGI cells at 25 nM after 6 hrs by LC-MS/MS analysis; assay type: functional, cell-based
U373-MAGI [20] = assay: Reduction in dRGU-TP level in human U373-MAGI cells at 2.5 nM preincubated for 2 hrs followed by 5-aza-C addition measured after 4 hrs by LC-MS/MS analysis; assay type: functional, cell-based
U373-MAGI [21] = assay: Reduction in dCTP level in human U373-MAGI cells at 2.5 nM preincubated for 2 hrs followed by 5-aza-dC addition measured after 4 hrs by LC-MS/MS analysis relative to 5-aza-dC; assay type: functional, cell-based
[22] = Reduction in dATP level in human U373-MAGI cells at 2.5 nM after 6 hrs by LC-MS/MS analysis; assay type: functional; parameters: scale not given: the % may be the effect or the level left
U373-MAGI [23] = assay: Reduction in 5-aza-dCTP level in human U373-MAGI cells at 2.5 nM preincubated for 2 hrs followed by 5-aza-C addition measured after 4 hrs by LC-MS/MS analysis; assay type: functional, cell-based
[24] = tested on: Human immunodeficiency virus 1; assay: Antiviral activity against VSV-G pseudotyped HIV-1 NL4-3 infected in human U373-MAGI cells assessed as reduction in viral infectivity at 2.5 nM incubated for 4 hrs prior to viral infection measured at 72 hrs post infection by flow cytometric analysis; assay type: functional, organism-based
U373-MAGI [25] = assay: Increase in 5-aza-dCTP/dCTP ratio in human U373-MAGI cells at 25 nM preincubated for 2 hrs followed by 5-aza-dC addition measured after 4 hrs by LC-MS/MS analysis relative to 5-aza-dC; assay type: functional, cell-based
U373-MAGI [26] = assay: Reduction in dTTP level in human U373-MAGI cells at 2.5 nM after 6 hrs by LC-MS/MS analysis; assay type: functional, cell-based
U373-MAGI [27] = assay: Reduction in dCTP level in human U373-MAGI cells at 25 nM preincubated for 2 hrs followed by 5-aza-dC addition measured after 4 hrs by LC-MS/MS analysis relative to 5-aza-dC; assay type: functional, cell-based

**Q.** Which results are given for Nc1ccn([C@@H]2O[C@H](CO)[C@@H](O)C2(F)F)c(=O)n1 [GEMCITABINE]?
**A.** Activity (U373-MAGI [1]): inactive; Activity [2]: Non-toxic; Activity (U373-MAGI [3]): inactive; Activity (U373-MAGI [4]): inactive; Activity (U373-MAGI [5]): inactive; Activity (U373-MAGI [6]): inactive; fold change (FC) [7]: 2.5; Activity (U373-MAGI [8]): Active; Activity (U373-MAGI [9]): inactive; Activity (U373-MAGI [10]): inactive; Activity (U373-MAGI [11]): Active; Activity (U373-MAGI [12]): Active; Activity (U373-MAGI [13]): Active; Activity (U373-MAGI [14]): Active; Activity (U373-MAGI [15]): Active; Activity (U373-MAGI [16]): inactive; Activity (U373-MAGI [17]): Active; Activity (U373-MAGI [18]): inactive; Activity (U373-MAGI [19]): Active; Activity (U373-MAGI [20]): inactive; Activity (U373-MAGI [21]): Active; Activity [22]: 30%; Activity (U373-MAGI [23]): inactive; Activity [24]: Active; Activity (U373-MAGI [25]): Active; Activity (U373-MAGI [26]): inactive; Activity (U373-MAGI [27]): Active
